Reference: patent US20090018111A1, “Novel Antimicrobial Medicament” (priority 2004, published 2009)
Read-outs that look alike come from different tables or passages of the source.

Tests used:
S. epidermidis IAM1296 = assay: Sensitivity test (agar dilution); assay type: cell-based, Staphylococcus epidermidis; details: Staphylococcus epidermidis, S. epidermidis IAM1296
Experimental: (§1) The antibacterial activities were tested against various 18 bacteria (27 standard strains) which are representative bacteria caused clinically infectious disease (Staphylococcus aureus 3 strains, Staphylococcus epidermidis 1 strain, Micrococcus luteus 1 strain, Streptococcus pyogenes 1 strain, Enterococcus faecalis 1 strain, Enterococcus faecium 1 strain, Bacillus subtilis 1 strain, Escherichia coli 3 strains, Klebsiella pneumoniae 1 strain, Proteus mirabilis 1 strain, Proteus vulgaris 2 strains, Pseudomonas aeruginosa 3 strains, Serratia marcescens 2 strains, Enterobacter aerogenes 1 strain, Stenotrophomonas maltophilia 1 strain, Enterobacter cloacae 1 strain, Citrobacter freundii 1 strain, Moraxella catarrhalis 2 strains).
(§2) According to the standard method of Japan Chemotherapeutic Society (Chemotherapy, vol. […], p 76-79 (1981)) the test was carried out using the agar dilution method. After dissolving test samples in distilled water, agar medium containing the test samples was prepared in such a manner that the final concentration became twice serial dilution by pouring serially diluted combination drug solution or a single drug solution into agar medium. As agar medium was used Mueller Hinton Agar medium (MHA). Then, each strain was cultivated over night at 37° C. in an incubator and suspended in buffered saline solution with gelatin (BSG) in the concentration of about 10^6 CFU/ml. The suspension (about 5 μl) containing test strains was inoculated to the medium containing the test samples by Micro Planter.
(§3) When the sample is subjected to sensitivity test, this mixed solution was diluted by twice serial dilution method.
(§4) Furthermore, when the drug is solely used, each test sample was used as it is, and diluted by twice serial dilution method from the maximum concentration to the minimum concentration.
(§5) FIC index based on MIC value was calculated. […] Namely, when FIC index calculated by the following formula is equal or less than 1, the enhanced effect of the combination drug in said ratio is considered as positive. When FIC index is over 1, the enhanced effect of the combination drug in said ratio is considered as negative.
(§6) Formula of FIC index: FIC index=(MIC of Drug A in combination/MIC of Drug A alone)+(MIC of Drug B in combination/MIC of Drug B alone) N.C. in tables means being not calculated.

Str. pyogenes Cook = assay: Sensitivity test (agar dilution); assay type: cell-based, Streptococcus pyogenes; details: Streptococcus pyogenes, Str. pyogenes Cook
Experimental: as §1, §2, §3, §4, §5, §6

E. faecalis ATCC19433 = assay: Sensitivity test (agar dilution); assay type: cell-based, Enterococcus faecalis; details: Enterococcus faecalis, E. faecalis ATCC19433
Experimental: as §1, §2, §3, §4, §5, §6

E. faecium ATCC19434 = assay: Sensitivity test (agar dilution); assay type: cell-based, Enterococcus faecium; details: Enterococcus faecium, E. faecium ATCC19434
Experimental: as §1, §2, §3, §4, §5, §6

B. subtilis ATCC6633 = assay: Sensitivity test (agar dilution); assay type: cell-based, Bacillus subtilis; details: Bacillus subtilis, B. subtilis ATCC6633
Experimental: as §1, §2, §3, §4, §5, §6

E. coli ML1410 = assay: Sensitivity test (agar dilution); assay type: cell-based, Escherichia coli; details: Escherichia coli, E. coli ML1410
Experimental: as §1, §2, §3, §4, §5, §6

E. coli NIHJ JC-2 = assay: Sensitivity test (agar dilution); assay type: cell-based, Escherichia coli; details: Escherichia coli, E. coli NIHJ JC-2
Experimental: as §1, §2, §3, §4, §5, §6

E. coli ML1410 RP4 = assay: microbe, parasite or virus in culture; assay type: cell-based, Escherichia coli; details: Escherichia coli, E. coli ML1410 RP4
Experimental: as §1, §2, §3, §4, §5, §6

P. vulgaris GN7919 = assay: Sensitivity test (agar dilution); assay type: cell-based, Proteus vulgaris; details: Proteus vulgaris, P. vulgaris GN7919
Experimental: as §1, §2, §3, §4, §5, §6

P. vurgalis OX-19 = assay: Sensitivity test (agar dilution); assay type: cell-based, Proteus vulgaris; details: Proteus vulgaris, P. vurgalis OX-19
Experimental: as §1, §2, §3, §4, §5, §6

S. marcescens GN6473 = assay: Sensitivity test (agar dilution); assay type: cell-based, Serratia marcescens; details: Serratia marcescens, S. marcescens GN6473
Experimental: as §1, §2, §3, §4, §5, §6

S. marcescens X 100 = assay: Sensitivity test (agar dilution); assay type: cell-based, Serratia marcescens; details: Serratia marcescens, S. marcescens X 100
Experimental: as §1, §2, §3, §4, §5, §6

E. cloacae GN7471 = assay: Sensitivity test (agar dilution); assay type: cell-based, Enterobacter cloacae; details: Enterobacter cloacae, E. cloacae GN7471
Experimental: as §1, §2, §3, §4, §5, §6

[1] = IAM1296, drug alone, read-out: MIC alone
[2] = drug alone, read-out: MIC alone
[3] = ATCC19433, drug alone, read-out: MIC alone
[4] = ATCC19434, drug alone, read-out: MIC alone
[5] = ATCC6633, drug alone, read-out: MIC alone
[6] = ML1410, drug alone, read-out: MIC alone
[7] = NIHJJC2, drug alone, read-out: MIC alone
[8] = ML1410RP4, read-out: MIC alone, drug alone
[9] = GN7919, drug alone, read-out: MIC alone
[10] = OX19, drug alone, read-out: MIC alone
[11] = GN6473, drug alone, read-out: MIC alone
[12] = X100, drug alone, read-out: MIC alone
[13] = GN7471, drug alone, read-out: MIC alone

SMILES	MIC (S. epidermidis IAM1296; [1]) [µg/mL]	MIC (Str. pyogenes Cook; [2]) [µg/mL]	MIC (E. faecalis ATCC19433; [3]) [µg/mL]	MIC (E. faecium ATCC19434; [4]) [µg/mL]	MIC (B. subtilis ATCC6633; [5]) [µg/mL]	MIC (E. coli ML1410; [6]) [µg/mL]	MIC (E. coli NIHJ JC-2; [7]) [µg/mL]	MIC (E. coli ML1410 RP4; [8]) [µg/mL]	MIC (P. vulgaris GN7919; [9]) [µg/mL]	MIC (P. vurgalis OX-19; [10]) [µg/mL]	MIC (S. marcescens GN6473; [11]) [µg/mL]	MIC (S. marcescens X 100; [12]) [µg/mL]	MIC (E. cloacae GN7471; [13]) [µg/mL]	further results
C[C@@H](O)[C@H]1C(=O)N2C(C(=O)[O-])=C(SC3Cn4cnc[n+]4C3)[C@H](C)[C@H]12 (stereo partly shown) [BIPM, biapenem]	1	0.008	4	16	0.031	0.25	0.031	0.25	0.5	0.25	0.125	0.063	0.063	MIC (S. epidermidis IAM1296; IAM1296, Concomitant (BIPM:SM = 1:1), read-out: MIC concomitant): 0.031 µg/mL; MIC (Str. pyogenes Cook; Concomitant (BIPM:SM = 1:1), read-out: MIC concomitant): 0.004 µg/mL; MIC (E. faecalis ATCC19433; ATCC19433, Concomitant (BIPM:SM = 1:1), read-out: MIC concomitant): 1 µg/mL; MIC (E. faecium ATCC19434; ATCC19434, Concomitant (BIPM:SM = 1:1), read-out: MIC concomitant): 0.25 µg/mL; MIC (B. subtilis ATCC6633; ATCC6633, Concomitant (BIPM:SM = 1:1), read-out: MIC concomitant): ≤ 0.002 µg/mL; MIC (E. coli ML1410; ML1410, Concomitant (BIPM:SM = 1:1), read-out: MIC concomitant): 0.063 µg/mL; MIC (E. coli NIHJ JC-2; NIHJJC2, Concomitant (BIPM:SM = 1:1), read-out: MIC concomitant): 0.031 µg/mL; MIC (E. coli ML1410 RP4; ML1410RP4, read-out: MIC concomitant, Concomitant (BIPM:SM = 1:1)): 0.125 µg/mL; MIC (P. vulgaris GN7919; GN7919, Concomitant (BIPM:SM = 1:1), read-out: MIC concomitant): 0.25 µg/mL; MIC (P. vurgalis OX-19; OX19, Concomitant (BIPM:SM = 1:1), read-out: MIC concomitant): 0.031 µg/mL; MIC (S. marcescens GN6473; GN6473, Concomitant (BIPM:SM = 1:1), read-out: MIC concomitant): 0.125 µg/mL; MIC (S. marcescens X 100; X100, Concomitant (BIPM:SM = 1:1), read-out: MIC concomitant): 0.063 µg/mL; MIC (E. cloacae GN7471; GN7471, Concomitant (BIPM:SM = 1:1), read-out: MIC concomitant): 0.063 µg/mL
CC(C)(O/N=C(\C(=O)N[C@@H]1C(=O)N2C(C(=O)[O-])=C(C[n+]3ccccc3)CS[C@H]12)c1csc(N)n1)C(=O)O [CAZ, ceftazidime]	> 32	0.125	> 32	> 32	2	0.25	0.25	0.5	0.5	0.031	0.5	0.25	32	MIC (S. epidermidis IAM1296; IAM1296, Concomitant (CAZ:SM = 1:1), read-out: MIC concomitant): 0.031 µg/mL; MIC (Str. pyogenes Cook; Concomitant (CAZ:SM = 1:1), read-out: MIC concomitant): 0.004 µg/mL; MIC (E. faecalis ATCC19433; ATCC19433, Concomitant (CAZ:SM = 1:1), read-out: MIC concomitant): 1 µg/mL; MIC (E. faecium ATCC19434; ATCC19434, Concomitant (CAZ:SM = 1:1), read-out: MIC concomitant): 0.125 µg/mL; MIC (B. subtilis ATCC6633; ATCC6633, Concomitant (CAZ:SM = 1:1), read-out: MIC concomitant): ≤ 0.002 µg/mL; MIC (E. coli ML1410; ML1410, Concomitant (CAZ:SM = 1:1), read-out: MIC concomitant): 0.063 µg/mL; MIC (E. coli NIHJ JC-2; NIHJJC2, Concomitant (CAZ:SM = 1:1), read-out: MIC concomitant): 0.063 µg/mL; MIC (E. coli ML1410 RP4; ML1410RP4, read-out: MIC concomitant, Concomitant (CAZ:SM = 1:1)): 0.125 µg/mL; MIC (P. vulgaris GN7919; GN7919, Concomitant (CAZ:SM = 1:1), read-out: MIC concomitant): 0.5 µg/mL; MIC (P. vurgalis OX-19; OX19, Concomitant (CAZ:SM = 1:1), read-out: MIC concomitant): 0.008 µg/mL; MIC (S. marcescens GN6473; GN6473, Concomitant (CAZ:SM = 1:1), read-out: MIC concomitant): 0.5 µg/mL; MIC (S. marcescens X 100; X100, Concomitant (CAZ:SM = 1:1), read-out: MIC concomitant): 0.125 µg/mL; MIC (E. cloacae GN7471; GN7471, Concomitant (CAZ:SM = 1:1), read-out: MIC concomitant): 8 µg/mL
